Test: gradient 5% acetonitrile 3 min, to 50% in 2 min, to 85% in 15 min, held 3 min, 100 µL/min
Conditions: column: Zorbax Extend-C18 2.1 x 50 mm; eluents: water / acetonitrile, 0.1% formic acid
Procedure, shortened: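 Pure standards were analyzed in mixtures of ~100 molecules using HPLC coupled to a quadrupole time-of-flight mass spectrometer, in both positive and negative ionization mode. Separation used a Zorbax Extend-C18 column (2.1 × 50 mm, 1.8 μm) at 100 μL/min, with water and acetonitrile each containing 0.1% formic acid. Dead and dwell volumes were 40 μL and 900 μL, and data were collected over 3 months. Retention time was read from computationally picked adduct peaks, each inspected manually.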

SMILES	RP-LC retention time
CCn1nc(C)c2c(-c3ccccc3)cc(OC(C)C(=O)Nc3ccc(C(C)=O)cc3)nc21 (centres undefined)	1030 s
O=C(Cc1ccccc1Cl)NCCCn1cccc1	773 s
COc1ccc(S(=O)(=O)CCC(=O)Nc2ccc(Cl)c3ncsc23)cc1	707 s
CCC(c1cccs1)N1C(=O)[C@H]2CN(S(=O)(=O)c3ccc(F)c(F)c3)C[C@H]2C1=O (some centres undefined)	1020 s
CC(C)C(NC(=O)c1cccc(CN2C(=O)C3CCCN3C(=O)c3ccccc32)c1)c1cccs1 (centres undefined)	882 s
O=C(c1csc(S(=O)(=O)N2CCC(C(=O)N3CCc4ccccc43)CC2)c1)N1CCOCC1	779 s
CCNC(=O)c1nc(Nc2ccc(CC)cc2)c2ccccc2n1	756 s
Cc1ccc(NC(=O)NCC2CCOCC2)c(Cl)c1	720 s
COc1ccc(CNc2nc3ccncc3n(Cc3ccccc3)c2=O)cc1	710 s
CCOc1ccc(C2c3[nH]c4ccccc4c3CCN2C(=O)c2ccncc2)cc1 (centres undefined)	948 s
Cc1nc2ccccc2nc1NS(=O)(=O)c1ccc(N)cc1	764 s
CCN(C(=O)Cn1nc(C(=O)N2CCCCC2)c2ccccc21)c1ccccc1	944 s
CCn1ccc(C(=O)N2CC(c3nc(C4CC4)nn3C)C2)n1	610 s
COc1cccc(-c2nnc(Cc3nc(-c4ccc(SC)cc4)no3)o2)c1	1050 s
CCc1nc(N)n(CC(=O)Nc2cccc(C)c2)c(=O)c1C	610 s
CCn1cc2c3c(cccc31)CN(C(=O)Nc1ccc(SC)cc1)CC2	984 s
CCCN1CCN(C(=O)c2noc3c2CCCCC3)CC1	613 s
CC1=C(c2ccc(C)cc2)S(=O)(=O)N=C1N1CCCN(C(=O)NC(C)(C)C)CC1	836 s
CCOC(=O)c1noc2ncnc(Nc3ccc(C)c(C)c3)c12	1070 s
COc1ccccc1-c1nc(Cn2nnc(-c3nc(-c4cccc(OC)c4OC)no3)c2C)c(C)o1	1050 s

SMILES	RP-LC retention time
Cc1ccc(-c2nc(Nc3ccccc3Cl)sc2CC(=O)O)cc1	1040 s
O=C(O)c1cc(NS(=O)(=O)c2ccccc2)ccc1N1CCCC(CN2CCCC2)C1 (centres undefined)	927 s
COc1ccc(-c2noc(Cn3cnc4c(cnn4-c4ccc(Cl)cc4)c3=O)n2)cc1	1120 s
COc1ccc2c(c1)C1(CCN(S(=O)(=O)c3cccc(C)c3)C1)C(=O)N2C (centres undefined)	941 s
O=C(CN1CCN(S(=O)(=O)c2ccccc2)CC1)Nc1ccc(Br)cc1	722 s
CCCCOc1ccc(NC(=O)NCCN2CCN(S(C)(=O)=O)CC2)cc1	600 s
CC(C)CCNC(=O)C1CCCN(c2nnc3ccc(C(F)(F)F)cn23)C1 (centres undefined)	829 s
O=C(NCCC1=CCCCC1)C1CCN(C(=O)c2ncn3c2COC(c2ccc(F)cc2)C3)CC1 (centres undefined)	849 s
CC(C)C(=O)Nc1c(-c2ccc(F)cc2)nc2ccccn12	602 s
Cc1cc(C)n2c(Nc3ccc(C(C)C)cc3)c(-c3cccc(Br)c3)nc2n1	1000 s
CN1CCc2cccc3c2C1Cc1ccc(O)c(O)c1-3 (centres undefined)	606 s
O=C(CN1CCN(C(=O)Nc2ccc(Cl)cc2)CC1=O)NC1CCCC1	690 s
CC(NC(=O)CC1CCCCC1)C(=O)Nc1nc2ccccc2[nH]1 (centres undefined)	663 s
Cc1ccc(-c2noc(CN3N=NC4C(=O)N(c5ccc(C(C)C)cc5)C(=O)C43)n2)cc1 (centres undefined)	1150 s
COc1ccc(NC(=O)NCCn2c(C(F)(F)F)nc3cccnc32)cc1	701 s
Cn1cccc1C(=O)NCCn1c(=O)n(Cc2ccccc2)c2cccnc21	767 s
CC(C)CN1CCn2cc(S(=O)(=O)Nc3ccc(Cl)cc3F)cc2C1=O	858 s
COCC(=O)N1CCc2c(c(-c3nnc(-c4ccccc4Cl)o3)nn2C)C1	689 s
COc1ccc(NC(=O)N2[C@H]3CC[C@@H]2c2cnc(-c4ccc(F)cc4)nc2C3)cc1OC	875 s
COC(=O)c1ccc(-c2nc3cnccn3c2Nc2ccc(C)cc2Br)cc1	1060 s

SMILES	RP-LC retention time
CNC(=O)c1cnn(-c2cccc(F)c2)c1-n1cccc1	777 s
CCN1C(=O)c2cccnc2Sc2cc(NC(=O)c3ccc(F)c(F)c3)ccc21	874 s
Cc1nc(C2CC23CCN(S(=O)(=O)c2cccc(F)c2)CC3)no1 (centres undefined)	888 s
CCc1nnc(-c2ccc(=O)n(CC(=O)Nc3ccc(C)cc3C)c2)o1	693 s
CN(CC1CCOCC1)C(=O)Nc1cccc(C(F)(F)F)c1	816 s
CC1=C(c2ccc(Cl)cc2)S(=O)(=O)N=C1N1CCC(C(=O)NCCc2ccco2)CC1	870 s
COc1ccc(S(=O)(=O)N2CCCC(C(=O)NCCC3=CCCCC3)C2)cc1Cl (centres undefined)	1070 s
O=S(=O)(NCC(O)(c1ccccc1)C(F)(F)F)c1ccc(F)c(Cl)c1 (centres undefined)	922 s
O=C(NCCCN1CCCC1)C1CN(C(=O)c2ccccc2)CC12CCCCC2 (centres undefined)	611 s
CCn1nccc1-c1cccc(-c2noc(C3CC(=O)N(c4cccc(Cl)c4)C3)n2)c1 (centres undefined)	1090 s
O=C(O)C1(c2cc(-c3ccccc3)on2)CC1	736 s
COc1cccc(S(=O)(=O)N2CCC3(C2)C(=O)N(C)c2ccc(OC)cc23)c1 (centres undefined)	904 s
O=C(c1ccncc1)N1CCN(C(=O)c2nnn3c2COC(c2ccc(Cl)cc2)C3)CC1 (centres undefined)	717 s
O=C(CN1CCN(Cc2ccc(F)cc2)C(=O)C1=O)N1CCN(c2ccc(F)cc2)CC1	744 s
O=C(CCc1nnc2c3cc(-c4ccc(F)cc4)nn3ccn12)NCCc1ccccn1	603 s
Cc1ccccc1-c1nnc(COc2ccc(NC(=O)c3sccc3C)cc2)o1	1010 s
CCCCn1c(=O)c2ccccc2n(Cc2nc(-c3cc(OC)c(OC)c(OC)c3)no2)c1=O	1080 s
Cc1ccc(NC(=O)Cn2ncc3c(c2=O)N(CC2CC2)C(=O)CS3)c(Cl)c1	846 s

Other lines, results leading:

RP-LC retention time	SMILES
733 s	CCn1cc(CCNC(=O)Nc2cccc(OC)c2)c2cccnc21
708 s	COc1ccc(Cl)cc1S(=O)(=O)N1CCCC(Cn2cnc3cccnc32)C1 (centres undefined)
858 s	O=C(COc1ccc(Cl)cc1Cl)NCC1CCN(C(=O)c2ccccc2F)CC1
795 s	CCc1ccc(CNC(=O)CC2CCN(C(=O)c3[nH]c(C)c(C(=O)OC)c3C)CC2)cc1
806 s	COc1ccc(S(=O)(=O)N2CCC(c3nc(C(=O)N(C)C)c(C)o3)CC2)cc1Cl
660 s	CCN(Cc1ccccc1)C(=O)Cn1c(N2CCCC2)nc(C)cc1=O
791 s	CCc1noc(NC(C)=O)c1-c1ccc(OC)c(S(=O)(=O)Nc2ccccc2OC)c1
723 s	Cc1ccc(CNC(=O)C2CCc3nc(N4CCOCC4)ncc3C2)cc1 (centres undefined)
645 s	CCCc1cc(N2CCN(C(=O)COc3ccc(F)cc3)CC2)nc2nnc(C)n12
810 s	COc1cccc(C(=O)NCCCS(=O)(=O)N2CCN(c3ccccc3)CC2)c1OC
741 s	COc1cc(OC)c(NC(=O)NCC(c2cccnc2)c2cn(C)c3ccccc23)cc1Cl (centres undefined)
1120 s	COc1ccc(NC(=O)Cn2c(N3CCOCC3)nc(C)cc2=O)cc1Cl
1080 s	Cc1ccc(NC(=O)Cn2c(=O)cc(-c3nc(C(C)C)no3)c3ccccc32)cc1F
792 s	Cc1ccnc(N2CCCC(C(=O)NCc3ccc(F)cc3Cl)C2)n1 (centres undefined)
703 s	COc1ccc2[nH]c(C(=O)NC3CC3)cc2c1
794 s	O=C(c1cc2ccccc2[nH]1)N1CCCC1

RP-LC retention time	SMILES
869 s	Cc1ccccc1C1CCCN1C(=O)c1cnn2cc(Br)cnc12 (centres undefined)
806 s	CCOc1cc(=O)n2c(c1C(=O)Nc1ccc(Cl)cc1F)CCCC2
657 s	COc1cc(Nc2c(C(=O)N3CCCC(C)C3)cnc3nc(C)ccc23)cc(OC)c1 (centres undefined)
645 s	CC(C)CN1CCN(Cc2nc(-c3ccc(N4CCCC(C)C4)nc3)no2)CC1 (centres undefined)
598 s	Cc1cccc(NC(=O)N2CCCC2c2nc(-c3cccc(C)c3)no2)c1 (centres undefined)
759 s	CSc1ccc(Cl)c(C(=O)Nc2cccn3c(C)nnc23)c1
981 s	COc1cccc(-c2noc(CN3C(=O)COc4ccc(C)cc43)n2)c1OC
901 s	Cc1ccc(NC(=O)C2CCN(C(=O)c3ncn4c3COC(c3ccc(F)cc3)C4)CC2)cc1Cl (centres undefined)
946 s	Cc1nc(-c2csc(S(=O)(=O)N3CCCC(C(=O)Nc4ccc(F)cc4)C3)c2)no1 (centres undefined)
658 s	COc1cccc(NC(=O)Cn2c(N3CCCCC3)nc(C)cc2=O)c1
811 s	COc1ccc(NC(=O)c2noc3c2CCC3)cc1OC
612 s	CC(CCNC(=O)C(C)n1c2ccccc2c2cnn(C)c(=O)c21)N1CCCC1 (centres undefined)
857 s	CSc1ccc(CNC(=O)COc2cc(C)nc(N3CCN(c4ccccc4)CC3)n2)cc1
587 s	CCc1onc(C)c1C1CCCN1Cc1cc(OC)c(O)c(OC)c1 (centres undefined)
984 s	CCn1cc(-c2nc(CC(=O)Nc3ccccc3OC)cs2)c2cccnc21

— the METLIN SMRT retention time set (Domingo-Almenara et al. 2019)
